{
  "source": "paper PMC10848157",
  "about": "“Assessing NH300094, a novel dopamine and serotonin receptor modulator with cognitive enhancement property for treating schizophrenia” (Frontiers in Pharmacology, 2024)",
  "assay": "Spontaneous locomotor activity test in mice",
  "details": "mouse, in vivo; single oral dose, male ICR mice; read-out: ED50, inhibition of spontaneous locomotor activity",
  "data": [
    {"smiles": "O=C1CCc2cc(OCCCN3CCC(c4noc5cc(F)ccc45)CC3)cc3c2N1CC3", "note": "[NH300094, 8-(3-(4-(6-fluorobenzo [d]isoxazol-3-yl)piperidin-1-yl)propoxy)-1,2,5,6-tetrahydro-4H-pyrrolo [3,2,1-ij] quinolin-4-one]", "values": [
      {"measurement": "ED50 at 60 min", "value": "~0.49", "unit": "mg/kg"}
    ]}
  ]
}
